Laboratory results from PubChem BioAssay AID1963967 (Molecular Pharmacology Branch, DTP, NCI, 2024).

System: 855422-203-R-J1-PDC spheroids with HUVEC/MSC, viability
Assay: Anticancer human tumor 855422-203-R-J1-PDC patient-derived bladder carcinoma cell line growth inhibition [PI3K]
Conditions: for IC50: curve of first compound; for viability, T/C: stronger effect = lower value
Summary of the method: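 Targeted small molecules plus PI3K inhibitors, half-log dose series from Cmax (default top 10 microM), were applied to heterotypic spheroids of cancer cells with HUVEC and MSCs. Viability indicated growth inhibition.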
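Note: agents incubated with spheroids for one week before read-out.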
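Throughout, for viability, T/C: 100% = DMSO vehicle-treated control wells.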

SMILES: CC(C)n1nc(-c2ccc3oc(N)nc3c2)c2c(N)ncnc21 + CC(Nc1ncnc2nc[nH]c12)c1cc2cccc(Cl)c2c(=O)n1-c1ccccc1
- IC50 (second compound 0.0316 µM): 50.8 nM
- IC50 (second compound 0.1 µM): 50.2 nM
- IC50 (second compound 0.316 µM): 46.5 nM
- IC50 (second compound 1 µM): 38.7 nM
- IC50 (second compound 3.16 µM): 33.4 nM
- IC50 (second compound 10 µM): 17.3 nM
- viability, T/C (second compound 0.0316 µM, first compound 0.000316 µM): 111%
- viability, T/C (second compound 0.0316 µM, first compound 0.001 µM): 97.1%
- viability, T/C (second compound 0.0316 µM, first compound 0.00316 µM): 121%
- viability, T/C (second compound 0.0316 µM, first compound 0.01 µM): 98.6%
- viability, T/C (second compound 0.0316 µM, first compound 0.0316 µM): 74.3%
- viability, T/C (second compound 0.0316 µM, first compound 0.1 µM): 15.9%
- viability, T/C (second compound 0.1 µM, first compound 0.000316 µM): 110%
- viability, T/C (second compound 0.1 µM, first compound 0.001 µM): 108%
- viability, T/C (second compound 0.1 µM, first compound 0.00316 µM): 107%
- viability, T/C (second compound 0.1 µM, first compound 0.01 µM): 98.1%
- viability, T/C (second compound 0.1 µM, first compound 0.0316 µM): 74%
- viability, T/C (second compound 0.1 µM, first compound 0.1 µM): 14.4%
- viability, T/C (second compound 0.316 µM, first compound 0.000316 µM): 100%
- viability, T/C (second compound 0.316 µM, first compound 0.001 µM): 106%
- viability, T/C (second compound 0.316 µM, first compound 0.00316 µM): 102%
- viability, T/C (second compound 0.316 µM, first compound 0.01 µM): 99.3%
- viability, T/C (second compound 0.316 µM, first compound 0.0316 µM): 69.1%
- viability, T/C (second compound 0.316 µM, first compound 0.1 µM): 12.1%
- viability, T/C (second compound 1 µM, first compound 0.000316 µM): 110%
- viability, T/C (second compound 1 µM, first compound 0.001 µM): 91.2%
- viability, T/C (second compound 1 µM, first compound 0.00316 µM): 100%
- viability, T/C (second compound 1 µM, first compound 0.01 µM): 96.9%
- viability, T/C (second compound 1 µM, first compound 0.0316 µM): 57.6%
- viability, T/C (second compound 1 µM, first compound 0.1 µM): 14.1%
- viability, T/C (second compound 3.16 µM, first compound 0.000316 µM): 95%
- viability, T/C (second compound 3.16 µM, first compound 0.001 µM): 91%
- viability, T/C (second compound 3.16 µM, first compound 0.00316 µM): 93.9%
- viability, T/C (second compound 3.16 µM, first compound 0.01 µM): 78.7%
- viability, T/C (second compound 3.16 µM, first compound 0.0316 µM): 52.2%
- viability, T/C (second compound 3.16 µM, first compound 0.1 µM): 12.9%
- viability, T/C (second compound 10 µM, first compound 0.000316 µM): 81.5%
- viability, T/C (second compound 10 µM, first compound 0.001 µM): 81%
- viability, T/C (second compound 10 µM, first compound 0.00316 µM): 80.3%
- viability, T/C (second compound 10 µM, first compound 0.01 µM): 59%
- viability, T/C (second compound 10 µM, first compound 0.0316 µM): 38.2%
- viability, T/C (second compound 10 µM, first compound 0.1 µM): 13.6%
